18 compounds from patent publication US20240109868A1, “EP300/CBP MODULATOR, PREPARATION METHOD THEREFOR AND USE THEREOF” (Miracure Biotechnology Limited, priority 2022, published 2024) can be followed below.

One assay deals with 22Rv1 Cell. The assay is described as follows: 22RV1 cell growth inhibition, CellTiter-Glo, 72 h. In kind it is cell-based. Particulars: Homo sapiens, 22Rv1, 72 h, 22RV1 cells, 72 h culture. The method, then:
(§1) 22RV1 or vCap cells were cultured in RPMI-1640 medium (10% fetal bovine serum and 100 units (per mL) of penicillin/streptomycin dual antibody were added to RPMI-1640) in a 37° C., 5% CO2 cell incubator. Cells at the logarithmic growth phase were inoculated onto a 96-well cell culture plate at 5×10^3 cells/100 μL/well and cultured overnight. Solutions of different concentrations of an active compound in DMSO were added, with the final concentration being 0.5% DMSO. The positive control was 1% TweeN2O, and the negative control was 0.5% DMSO. After 72 h of culture, an equal volume of CellTiter-Glo was added to each well, and the mixtures were mixed homogeneously by shaking for 2 min. The plate was let stand at room temperature for 10 min, and fluorescence signal values were read using a microplate reader. Data were analyzed using Prism 7.0 and graphs were generated. The values are shown as mean f SEM (N=2). […] The X-axis represents compound concentration (μM), and the Y-axis represents % inhibition.

The subject of another assay is vCap Cell. Briefly: vCap cell growth inhibition, CellTiter-Glo, 72 h. In kind it is cell-based. Particulars: Homo sapiens, VCaP, 72 h, vCap cells, 72 h culture. On the procedure:
as §1
(In general: ATP-based viability assays read luminescence as a measure of living cells.)

Bounds are passed on as bounds.

One may read the IC50 as the concentration that gives 50% inhibition. On to `CC(=O)N1Cc2cc(C3CCN(C(=O)c4ccccc4)CC3)cc(N3CCCc4cc(-c5cnn(C)c5)c(C(F)F)cc43)c2C1` [Compound M001081], for which the IC50 in the assay on 22Rv1 Cell and in the assay on vCap Cell was less than 1000 nM in each case.

For the compound `CNC(=O)N1CCc2cc(C3CCN(C(=O)C4CNC4)CC3)cc(N3CCCc4cc(-c5cnn(C)c5)c(C(F)F)cc43)c2C1` [Compound M001083], the IC50 in the assay on 22Rv1 Cell and in the assay with vCap Cell was greater than 1000 nM throughout.

For the compound `CNC(=O)N1CCc2cc(C3CCN(C(=O)C4CN(C)C4)CC3)cc(N3CCCc4cc(-c5cnn(C)c5)c(C(F)F)cc43)c2C1` [Compound M001084], the IC50 in the assay with 22Rv1 Cell and in the assay with vCap Cell was greater than 1000 nM throughout.

As to `CNC(=O)N1CCc2cc(C3CCN(C(=O)C4CCN(C)C4)CC3)cc(N3CCCc4cc(-c5cnn(C)c5)c(C(F)F)cc43)c2C1` (stereo not drawn) [Compound M001085], the IC50 in the assay on 22Rv1 Cell and with vCap Cell was greater than 1000 nM in each case.

Regarding `CC(=O)N1Cc2cc(C3CCN(C(=O)C4CN(C)C4)CC3)cc(N3CCCc4cc(-c5cnn(C)c5)c(C(F)F)cc43)c2C1` [Compound M001086], the IC50 with 22Rv1 Cell and in the assay with vCap Cell was greater than 1000 nM each time.

For the compound `CC(=O)N1Cc2cc(C3CCN(C(=O)C4CCN(C)C4)CC3)cc(N3CCCc4cc(-c5cnn(C)c5)c(C(F)F)cc43)c2C1` (stereo not drawn) [Compound M001087], the IC50 in the assay with 22Rv1 Cell and in the assay on vCap Cell was greater than 1000 nM in each case.

For the compound `CNC(=O)N1CCc2cc(C3=CC4CCC(C3)N4)cc(N3CCCc4cc(-c5cnn(C)c5)c(C(F)F)cc43)c2C1` (stereo not drawn) [Compound M001088], the IC50 in the assay on 22Rv1 Cell and in the assay on vCap Cell was greater than 1000 nM each time.

Take `CNC(=O)N1CCc2cc(C3CC4CCC(C3)N4)cc(N3CCCc4cc(-c5cnn(C)c5)c(C(F)F)cc43)c2C1` (stereo not drawn) [Compound M001089]: the IC50 with 22Rv1 Cell and in the assay with vCap Cell was greater than 1000 nM in each case.

Turning to `CNC(=O)N1CCc2cc(C3=CCC4(CC3)OCCO4)cc(N3CCCc4cc(-c5cnn(C)c5)c(C(F)F)cc43)c2C1` [Compound M001090], the IC50 in the assay with 22Rv1 Cell and in the assay with vCap Cell was greater than 1000 nM throughout.

With `CNC(=O)N1Cc2cc(C3CC4CCC(C3)N4C)cc(N3CCCc4cc(-c5cnn(C)c5)c(C(F)F)cc43)c2C1` (stereo not drawn) [Compound M001092], the IC50 in the assay with 22Rv1 Cell and in the assay with vCap Cell was greater than 1000 nM each time.

With `CNC(=O)N1Cc2cc(C3CCC(F)(F)CC3)cc(N3CCCc4cc(-c5cnn(C)c5)c(C(F)F)cc43)c2C1` [Compound M001094], the IC50 with 22Rv1 Cell and in the assay on vCap Cell was greater than 1000 nM each time.

`CNC(=O)N1Cc2cc(C3CC4CCC(C3)N4C(C)=O)cc(N3CCCc4cc(-c5cnn(C)c5)c(C(F)F)cc43)c2C1` (stereo not drawn) [Compound M001095]: the IC50 with 22Rv1 Cell and with vCap Cell was greater than 1000 nM each time.

With `CNC(=O)N1Cc2cc(C3=CCN(C(=O)OCc4ccccc4)CC3)cc(N3CCCc4cc(-c5cnn(C)c5)c(C(F)F)cc43)c2C1` [Compound M001096], the IC50 with 22Rv1 Cell and in the assay with vCap Cell was greater than 1000 nM in each case.

Turning to `CNC(=O)N1Cc2cc(C3=CC4CCC(C3)N4C(=O)OC(C)(C)C)cc(N3CCCc4cc(-c5cnn(C)c5)c(C(F)F)cc43)c2C1` (stereo not drawn) [Compound M001097], the IC50 in the assay on 22Rv1 Cell and in the assay with vCap Cell was greater than 1000 nM throughout.

With `CNC(=O)N1Cc2cc(C3=CC4CCC(C3)N4)cc(N3CCCc4cc(-c5cnn(C)c5)c(C(F)F)cc43)c2C1` (stereo not drawn) [Compound M001098], the IC50 in the assay with 22Rv1 Cell and in the assay on vCap Cell was greater than 1000 nM throughout.

As for `CNC(=O)N1Cc2cc(C3CC4CCC(C3)N4)cc(N3CCCc4cc(-c5cnn(C)c5)c(C(F)F)cc43)c2C1` (stereo not drawn) [Compound M001099], the IC50 in the assay with 22Rv1 Cell and in the assay with vCap Cell was greater than 1000 nM each time.

In the case of `CC(=O)N1Cc2cc(C3CCC4(CC3)OCCO4)cc(N3CCCc4cc(-c5cnn(C)c5)c(C(F)F)cc43)c2C1` [Compound M001101], the IC50 with 22Rv1 Cell and in the assay on vCap Cell was less than 1000 nM in each case.

Consider `CC(=O)N1Cc2cc(C3CCC(=O)CC3)cc(N3CCCc4cc(-c5cnn(C)c5)c(C(F)F)cc43)c2C1` [Compound M001102], for which the values for the IC50 in the assay with 22Rv1 Cell and in the assay on vCap Cell were greater than 1000 nM and less than 1000 nM, respectively.
